Patent publication US20150335055A1, “BEVERAGE PR[…] BASED ON PIMARICIN AND HEADSPACE GAS” (PEPSICO, INC., priority 2013, published 2015)

Columns and labels:
[1] = Loss of pimaricin over time in water as a function of O2 content and complex with β-cyclodextrin (Background Example 3); assay type: physicochemical
From the text: (§1) Such reactions are a consequence of the formation of reactive oxygen species (ROS) wherein oxygen merely serves as an intermediate in the transfer of electrons in REDOX type reactions which ultimately result in the degradation of more complex molecules such as pimaricin. In this regard, O2 behaves similar to a catalyst. Similar to many reactions involving catalyst, the amount of oxygen required to drive in such reactions is very small. In this regard, it is of interest to evaluate the stability of pimaricin in solution under differing conditions of oxygen tension. Clearly, it is also of interest to establish whether the formation of a complex between pimaricin and β-cyclodextrin serves to stabilize pimaricin from degradation by reaction with oxygen. […] Briefly, pimaricin yields a very distinctive UV-visible spectrum with 3 separate absorption maxima. As pimaricin degrades, the peak heights diminish. Degradation can be tracked through the diminishing peak height of any single peak maxima or through changes in relative peak height.
Given a method to monitor the changes in concentration of pimaricin, it is then possible to establish whether pimaricin degrades differently as a function of variables such as initial oxygen tension of solution. Background Example 3, FIG. 3 captures results for the degradation of pimaricin over a time period of several months as a function of initial oxygen tension and the presence or absence of a complex between pimaricin and β (beta) cyclodextrin.
The initial concentration of pimaricin in complex ≧400 ppm and so pimaricin is fully bound to β-cyclodextrin. Measurements in distilled water at neutral pH and 25° C. Thus, regardless of the presence or absence of a complex with cyclodextrin, pimaricin is subject to degradation over time when in solution.

[2] = Solubility of pimaricin in aqueous solution; assay type: physicochemical
[3] = Degradation kinetics of pimaricin in beverage without β-cyclodextrin, UV-visible peak ratio (Background Example 2); assay type: physicochemical; settings: beverage pH 3.4; no β-cyclodextrin
From the text: as §1
Freshly prepared samples of pimaricin in water yield a spectrogram of 3 peak 1 (320 nm) peak 2 (304 nm) and peak 3 (291 nm). […] These differences are a reflection of the conjugated diene structure of pimaricin. As the integrity of the conjugate structure gives way to degradation, the relative peak heights are subject to change. […]

[4] = system: yeast which can spoil carbonated beverage; settings: types of yeast which can spoil carbonated beverage; cited from earlier work
[5] = short exposures; cited from earlier work
[6] = Pimaricin concentration over time in Example 1 samples by UV-Visible spectroscopy; assay type: physicochemical; settings: pimaricin in the absence of cyclodextrin; initial 1.1 ppm; carbonated mock grape beverage, 25° C.
From the text: as §1
A 16 week trial was conducted with a mock grape 12 Brix 2% grape juice mock glass “pony” 9.8 oz. bottle. Beverages were carbonated to 3.7 and 4.5 volumes. Five containers of each CO2 level were not inoculated and served as negative controls. […]

[7] = system: pooled inoculum of strains of Saccharomyces Brettanomyces and Zygosaccharomyces; assay: 16 week spoilage trial in carbonated mock grape beverage (3.7 and 4.5 volumes CO2), Example 1; assay type: cell-based; settings: 1.1 ppm pimaricin, no cyclodextrin; for first note of spoilage: 25° C.; for incidence of spoilage (frequency, 1=100%): after 100 days
Experimental: A 16 week trial was conducted with a mock grape 12 Brix 2% grape juice mock glass “pony” 9.8 oz. bottle. Beverages were carbonated to 3.7 and 4.5 volumes. Five containers of each CO2 level were not inoculated and served as negative controls. Five containers of each CO2 level were inoculated with a pooled inoculum of strains of Saccharomyces Brettanomyces and Zygosaccharomyces such that an initial cell density of 100 organisms per milliliter was achieved. These samples served as positive controls. Half of the remaining containers received the same inoculum and were also dosed with pimaricin to a concentration of 1.1 mg 1^−1 (mg per liter or mg/L). The remaining containers were dosed with pimaricin in complex with β-cyclodextrin in a manner that yielded a final concentration of pimaricin of 0.8 ppm. All samples were then held at 25° C. for the duration of the study. During the course of the study, pimaricin concentration was established in samples employing UV-Visible spectroscopy.

Substance: (IR,3S,5R,7R,8E,12R,14E,16E,18E,20E,22R,24S,25R,26S)-{[3S,4S,5S,6R)-4-amino-3,5-dihydroxy-6-methyloxan-2-yl]oxy}-1,3,26 trihydroxy-12-methyl-10-oxo-6,11,28-trioxatricyclo[22.3.1.0^5,7]octacosa-8,14,16,18,20 pentaene-25-carboxylic acid [pimaricin]
- effect of lowering oxygen concentration on rate of degradation ([1]; not complexed, oxygen lowered to 3500 ppb): does not measurably impact the rate of degradation
- degradation over time ([1]; not complexed, water containing oxygen in excess of 8500 ppb): degrades quite quickly
- rate of degradation versus water containing 8300 ppm O2 ([1]; pimaricin alone in water containing only, neutral pH, 25° C.): about the same rate
- rate of degradation versus pimaricin complex β-cyclodextrin ([1]; water containing 8300 ppb O2, distilled water, neutral pH, 25° C.): slightly faster rate
- normal limit of solubility ([2]; beverage of acid pH, 25° C.): 20-25 ppm
- limit of solubility ([2]; high acid beverage): 25 ppm
- limit of solubility in aqueous solution ([2]; in the absence of β-cyclodextrin): 20-25 mg 1^−1
- degradation in aqueous suspension [3]: degrades relatively quickly
- reported MIC values [4]: ≥ 10 ppm
- temperature to which antimicrobial activity is stable [5]: ≥ 120 ° F.
- half-life of degradation [6]: about 35 days
- first note of spoilage ([7]; 3.7 volumes CO2): 20 days
- first note of spoilage ([7]; 4.5 volumes CO2): 20 days
- incidence of spoilage (frequency, 1=100%) ([7]; 3.7 volumes CO2): 0.6
- incidence of spoilage (frequency, 1=100%) ([7]; 4.5 volumes CO2): 0.6
